In US9115151B2, “Substituted 2,10-dihydro-9-oxa-1,2,4A-triazaphenanthren-3-ones and uses thereof” (AbbVie Inc., priority 2012, dated 2015):
Structures can show the parent of a compound that is named as a salt. Where two headings read alike, the source gives them in different places.

Experiments:
PKCθ = molecular target: T1, PKCθ (Homo sapiens, UniProt Q04759); experiment: In vitro enzyme assay (time-resolved fluorescence kinase assay), PKCθ, 100 μM ATP; assay type: biochemical
T1 construct: His6; purchased Millipore; host or cells: baculovirus in Sf21 cells
T1 sequence (Q04759 whole entry): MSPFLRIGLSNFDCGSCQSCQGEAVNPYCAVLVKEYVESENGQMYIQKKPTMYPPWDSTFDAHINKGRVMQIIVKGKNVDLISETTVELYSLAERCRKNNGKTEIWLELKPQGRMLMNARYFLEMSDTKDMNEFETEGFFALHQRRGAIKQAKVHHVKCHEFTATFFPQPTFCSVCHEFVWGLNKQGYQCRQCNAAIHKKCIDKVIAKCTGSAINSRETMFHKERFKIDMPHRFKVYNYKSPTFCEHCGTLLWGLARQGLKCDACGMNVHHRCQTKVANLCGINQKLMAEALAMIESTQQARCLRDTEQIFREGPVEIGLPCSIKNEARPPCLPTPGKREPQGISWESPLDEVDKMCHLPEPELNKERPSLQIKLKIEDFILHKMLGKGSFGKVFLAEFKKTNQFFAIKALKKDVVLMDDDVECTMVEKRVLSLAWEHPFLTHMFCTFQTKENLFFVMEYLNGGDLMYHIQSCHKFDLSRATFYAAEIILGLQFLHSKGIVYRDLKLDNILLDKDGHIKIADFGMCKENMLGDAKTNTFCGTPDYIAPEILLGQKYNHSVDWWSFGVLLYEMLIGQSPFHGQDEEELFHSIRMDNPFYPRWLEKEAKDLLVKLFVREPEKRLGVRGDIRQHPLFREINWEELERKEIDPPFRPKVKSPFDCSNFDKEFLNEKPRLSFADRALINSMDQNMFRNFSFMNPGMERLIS
Procedure: (§1) PKC kinase activity was assayed by time-resolved fluorescence in vitro kinase assay. Unless otherwise indicated, all reagents used for enzyme assays were obtained from Sigma. Specifically, 5 μL N- or C-terminal His6-tagged, recombinant, human PKC, expressed by baculovirus in Sf21 cells (Millipore) was mixed with 5 μL inhibitor (various concentrations, 5% final DMSO), 5 μL Bio-cdc peptide (Biotin-Ahx-[…], 2 μM final concentration, New England Peptide) and 5 μL of ATP (100 μM or 1000 μM final concentration) in 1× reaction buffer, 20 μL final volume.
(§2) Following a sixty minute incubation at room temperature, the reaction was quenched with 5 μL of 0.5 M EDTA pH 7.5.
(§3) Background counts from a minus enzyme control is subtracted from all data. Data (after background correction) are converted to percent activity by dividing by the signal obtained from PKC without drug sample.

[1] = tested on: CD3/CD28 induced IL-2 in human T-Blasts; experiment: T-Blasts CD3/CD28 induced IL-2 assay; assay type: cell-based; details: read-out: CD3/CD28-stimulated IL2 in T-blasts EC50
Procedure: T-Blasts CD3/CD28 Induced IL-2 Assay
Human T-Blasts are generated using PHA following standard protocols. T-Blasts are freeze aliquoted and vials thawed as required. […] Seed 2×10^5/100 μL cell suspension per well in flat bottomed 96 well plate. Compound dilutions are prepared from 100% DMSO stocks. A total of 8 serial dilutions are made (1/3 in 100% DMSO). Compounds are diluted 1/50 in growth medium to prepare 4× stocks of each tested concentration. 50 μL from each 4× stock concentration is added to the 100 μL cell suspension and incubated for 30 minutes prior stimulus addition. A 4× stimulus stock is prepared using anti-CD3+anti-CD28 antibodies. Antibody mix is added to the cell/compounds suspension in 50 μL at 5 μg/mL final concentration. Compounds are tested in duplicates. Plates are transferred to 37° C./CO2 incubator for 24 hours. After incubation 130 μL of supernatant is collected for IL-2 determination while MTT toxicity analysis is performed on remaining cells/medium.

PKCα = molecular target: T2, PKCα (Homo sapiens, UniProt P17252); experiment: In vitro enzyme assay (time-resolved fluorescence kinase assay), PKCα, 100 μM ATP; assay type: biochemical
T2 construct: His6; purchased Millipore; host or cells: baculovirus in Sf21 cells
Procedure: as §1, §2, §3

[2] = 100 μM ATP, read-out: PKCα enzyme IC50

SMILES	IC50 (PKCθ) [µM]	EC50 [1] [µM]	IC50 (PKCα; [2]) [µM]	IC50 (PKCα) [µM]
Cc1cc2c(cc1C1CCNCC1)N1C(=NNC(=O)C1C)CO2 (stereo not drawn) [Example 75, 4,7-Dimethyl-6-piperidin-4-yl-2,10-dihydro-9-oxa-1,2,4a-triaza-phenanthren-3-one trifluoroacetic acid]	< 0.25	0.25 to 1	1 to 10	–
Cc1cc(-c2cc3c(cc2NC2CNC2)N2C(=NNC(=O)C2C)CO3)ccc1F (racemic) [Example 32]	< 0.25	0.25 to 1	1 to 10	–
CC1C(=O)NN=C2COc3c(cc(NC4CNC4)c(F)c3F)N21 (stereo not drawn) [Example 114, 9-(Azetidin-3-ylamino)-7,8-difluoro-1-methyl-3,5-dihydrobenzo[5,6][1,4]oxazino[3,4-c][1,2,4]triazin-2(1H)-one trifluoroacetic acid]	< 0.25	< 0.25	1 to 10	–
CC1C(=O)NN=C2COc3cc(-c4cccc(F)c4)c(NC4CNC4)cc3N21 (racemic) [Example 46]	< 0.25	< 0.25	1 to 10	–
CC1C(=O)NN=C2CCc3ccc(NC4CNC4)cc3N21 (stereo not drawn) [Example 108, 9-(Azetidin-3-ylamino)-1-methyl-5,6-dihydro-1H-[1,2,4]triazino[4,3-a]quinolin-2(3H)-one hydrochloric acid]	< 0.25	< 0.25	0.25 to 1	–
CC1C(=O)NN=C2COc3cc(OCc4ccccc4)c(NC4CNC4)cc3N21 (stereo not drawn) [Example 127, 6-(Azetidin-3-ylamino)-7-benzyloxy-4-methyl-2,10-dihydro-9-oxa-1,2,4a-triaza-phenanthren-3-one trifluoroacetic acid]	< 0.25	0.25 to 1	1 to 10	–
CC1C(=O)NN=C2COc3ccc(C4CCNC(Cc5ccccc5)C4)cc3N21 (stereo not drawn) [Example 86, 9-(2-Benzylpiperidin-4-yl)-1-methyl-3,5-dihydrobenzo[5,6][1,4]oxazino[3,4-c][1,2,4]triazin-2(1H)-one trifluoroacetic acid]	< 0.25	< 0.25	1 to 10	–
C[C@@H]1C(=O)NN=C2COc3cc(-c4ccccc4F)c(NC4CNC4)cc3N21 [Example 3]	< 0.25	< 0.25	1 to 10	–
COc1ccc2cc(-c3cc4c(cc3NC3CNC3)N3C(=NNC(=O)C3C)CO4)ccc2c1 (racemic) [Example 35]	< 0.25	< 0.25	1 to 10	–
Cc1cc2c(cc1NC1(C)CNC1)N1C(=NNC(=O)C1C)CO2 (stereo not drawn) [Example 98, 4,7-Dimethyl-6-(3-methyl-azetidin-3-ylamino)-2,10-dihydro-9-oxa-1,2,4a-triaza-phenanthren-3-one trifluoroacetic acid]	1 to 10	–	1 to 10	–
C[C@@H]1C(=O)NN=C2COc3cc(-c4c(N5CCNCC5)ccc(Cl)c4Cl)ccc3N21 [Example 132]	< 0.25	0.25 to 1	1 to 10	–
Cc1ccc(-c2cc3c(cc2[C@@H]2CCN(C)C[C@@H]2C)N2C(=NNC(=O)[C@H]2C)CO3)c(F)c1 [Example 200]	–	< 0.25	< 0.25	–
C[C@@H]1C(=O)NN=C2COc3cc(C(F)(F)F)c(NC4(C)CNC4)cc3N21 (single isomer, unassigned) [Example 100-1, trifluoroacetic acid]	–	< 0.25	1 to 10	–
CC1C(=O)NN=C2COc3cc(C(F)(F)F)c(NC4(C)CNC4)cc3N21 (stereo not drawn) [Example 81, 4-Methyl-6-(3-methyl-azetidin-3-ylamino)-7-trifluoromethyl-2,10-dihydro-9-oxa-1,2,4a-triaza-phenanthren-3-one]	–	0.25 to 1	1 to 10	–
COc1ccc(-c2cc3c(cc2[C@@H]2CCN(C)C[C@@H]2C)N2C(=NNC(=O)[C@H]2C)CO3)c(F)c1 [Example 201]	–	< 0.25	–	< 0.25
CC1NCC1Nc1ccc2c(c1)N1C(=NNC(=O)C1C)CO2 (stereo not drawn) [Example 118, 4-Methyl-6-(2-methyl-azetidin-3-ylamino)-2,10-dihydro-9-oxa-1,2,4a-triaza-phenanthren-3-one trifluoroacetic acid]	0.25 to 1	–	1 to 10	–
C[C@H]1C(=O)NN=C2COc3cc(C(F)(F)F)c(NC4CNC4)cc3N21 (single isomer, unassigned) [Example 53-1, trifluoroacetic acid]	–	0.25 to 1	1 to 10	–
C[C@H]1C(=O)NN=C2COc3cc(C(F)(F)F)c(NC4(C)CNC4)cc3N21 [Example 100-2, (S)-1-Methyl-9-((3-methylazetidin-3-yl)amino)-8-(trifluoromethyl)-3,5-dihydrobenzo[5,6][1,4]oxazino[3,4-c][1,2,4]triazin-2(1H)-one trifluoacetic acid salt]	–	0.25 to 1	0.25 to 1	–
C[C@@H]1C(=O)NN=C2COc3cc(-c4c(F)cccc4F)c([C@@H]4CCN(C)C[C@@H]4C)cc3N21 [Example 245, (R)-7-(2,6-Difluoro-phenyl)-6-((3R,4R)-1,3-dimethyl-piperidin-4-yl)-4-methyl-2,10-dihydro-9-oxa-1,2,4a-triaza-phenanthren-3-one]	–	< 0.25	0.25 to 1	–
C[C@@H]1C(=O)NN=C2COc3cc(C(F)(F)F)c(NC4CNC4)cc3N21 (single isomer, unassigned) [Example 53-2, trifluoroacetic acid]	–	< 0.25	1 to 10	–

Now from value to compound, other results behind:

IC50 (PKCθ) [µM]	EC50 [1] [µM]	IC50 (PKCα; [2]) [µM]	SMILES	IC50 (PKCα) [µM]
< 0.25	< 0.25	0.25 to 1	C[C@@H]1C(=O)NN=C2COc3cc(-c4ccccc4Cl)c(N(C)C4(C)CN(C)C4)cc3N21 [Example 177]	–
0.25 to 1	–	1 to 10	C[C@H]1C(=O)NN=C2COc3cc4ccn([C@]5(C)CCNC5)c4cc3N21 [Example 165, (S)-1-Methyl-10-((R)-3-methyl-pyrrolidin-3-yl)-3,5-dihydro-10H-6-oxa-3,4,10,11b-tetraaza-cyclopenta[b]phenanthren-2-one]	–
< 0.25	1 to 10	1 to 10	C[C@H]1C(=O)NN=C2COc3cc(-c4ccccc4F)c(N(C)[C@@]4(C)CCN(C)C4)cc3N21 (single isomer, unassigned) [Example 198-1]	–
< 0.25	0.25 to 1	1 to 10	C[C@@H]1C(=O)NN=C2COc3cc(-c4ccccc4F)c([C@H]4CCCNCC4)cc3N21 [Example 217]	–
< 0.25	< 0.25	1 to 10	C[C@@H]1C(=O)NN=C2COc3cc(-c4ccccc4F)c([C@H]4CCNC4)cc3N21 [Example 214]	–
< 0.25	0.25 to 1	1 to 10	C[C@@H]1C(=O)NN=C2COc3cc(-c4ccccc4F)c(N(C)C4(C)CN(C(=O)CN(C)C)C4)cc3N21 [Example 187]	–
0.25 to 1	0.25 to 1	1 to 10	CC(C)c1cc2c(cc1[C@@H](C)C1(C)CNC1)N1C(=NNC(=O)[C@H]1C)CO2 [Example 133, (R)-7-Isopropyl-4-methyl-6-[(R)-1-(3-methyl-azetidin-3-yl)-ethyl]-2,10-dihydro-9-oxa-1,2,4a-triaza-phenanthren-3-one hydrochloric acid]	–
< 0.25	0.25 to 1	1 to 10	CC(C)c1cc2c(cc1[C@@H](C)C1(C)CN(C)C1)N1C(=NNC(=O)[C@H]1C)CO2 [Example 134, (R)-6-[(R)-1-(1,3-Dimethyl-azetidin-3-yl)-ethyl]-7-isopropyl-4-methyl-2,10-dihydro-9-oxa-1,2,4a-triaza-phenanthren-3-one]	–
< 0.25	< 0.25	0.25 to 1	Cc1cccc(-c2cc3c(cc2N(C)C2(C)CN(C)C2)N2C(=NNC(=O)C2C)CO3)c1 (stereo not drawn) [Example 172]	–
< 0.25	< 0.25	–	COc1cccc(-c2cc3c(cc2[C@@H]2CCN(C)C[C@@H]2C)N2C(=NNC(=O)[C@H]2C)CO3)c1F [Example 237, (R)-6-((3R,4R)-1,3-Dimethyl-piperidin-4-yl)-7-(2-fluoro-3-methoxy-phenyl)-4-methyl-2,10-dihydro-9-oxa-1,2,4a-triaza-phenanthren-3-one]	–
1 to 10	–	1 to 10	C[C@@H]1C(=O)NN=C2COc3cc(C(F)(F)F)c([C@H](C)C4(C)CNC4)cc3N21 (single isomer, unassigned) [Example 147-2, trifluoroacetic acid]	–
< 0.25	< 0.25	–	COc1ccc(F)c(-c2cc3c(cc2[C@@H]2CCN(C)C[C@@H]2C)N2C(=NNC(=O)[C@H]2C)CO3)c1 [Example 241]	–
0.25 to 1	–	1 to 10	CC1C(=O)NN=C2COc3cc(-c4ccccc4F)c(N4CC5CCC4CN5)cc3N21 (stereo not drawn) [Example 229]	–
